# According to patent US8946275B2, “Treatment of cancer using hypoxia activated prodrugs” (Threshold Pharmaceuticals, Inc., priority 2008, dated 2015):
# Assay: Phase 1 clinical trial of TH-302 monotherapy, dose escalation
# Type: in vivo, human
# Protocol: A Phase 1 clinical trial was conducted with TH-302. The starting dose was 7.5 mg/m^2 IV over 30-60 min administered once weekly for 3 weeks of a 4 week cycle. A modified accelerated titration design was used.
smiles,measurement,setting,value
"Cn1c(COP(=O)(NCCBr)NCCBr)cnc1[N+](=O)[O-] [TH-302, (2-bromoethyl)({[(2-bromoethyl)amino][(2-nitro-3-methylimidazol-4-yl)methoxy]phosphoryl})amine]",Dose limiting toxicity (DLT),575 mg/m^2 weekly x3 of 4 week cycle,five of the six patients did not exhibit a DLT
same,Dose limiting toxicity (DLT),670 mg/m^2 weekly x3 of 4 week cycle,Two of five patients
same,Dose limiting toxicity,940 mg/m^2 once every three weeks,two of six subjects have had a dose limiting toxicity
same,Patients with stable disease,"Phase 1 monotherapy, all doses",16 patients
same,Dose limiting toxicities,"dose escalation study, monotherapy",mucositis with one grade 3 event involving the oral mucosa and one grade 3 event involving the gastrointestinal mucosa
same,Hematologic toxicity,monotherapy,mild and limited
same,Skin and mucosal toxicity,monotherapy,skin and mucosal toxicity was common at doses above 240 mg/m^2
same,MTD,once every three week dosing,670 mg/m^2
same,MTD,once per week for three weeks of a four week cycle,575 mg/m^2
